Patent US11351151B2, “Compound having anticancer activity and preparation method and application” (3D Medicines (Beijing) Co., Ltd., priority 2016, dated 2022)
Where “and” joins values, the source holds several entries; their conditions need not be identical. Identical values can stand only once. Entries after “also recorded” stand apart in the source; their conditions may differ. One block for each compound: values may come before it.

Experiments:
[1] = Liver homogenate incubation stability study; type: in vitro ADME, SD rat; conditions: for Residual intermediate: listed as intermediate
Description: (§1) The purpose of this example was to investigate the stability of the precursor Linifanib-C12-AA5 (compound 8) and the intermediate Linifanib-C12-Asp (compound 12) in plasma, liver homogenate and spleen homogenate (precursor Linifanib-C12-AA5 metabolizes into the intermediates Linifanib-C12-Asp and Linifanib; the intermediate Linifanib-C12-Asp is further metabolized to form Linifanib), and the metabolites were analyzed quantitatively, and the stability of the incubation system was verified with positive drugs, providing references for compound drug evaluation.
(§2) Experimental Procedure • 1. Animal blood was collected, blood samples were placed in EDTA anticoagulation tubes, centrifuged at 3000 g for 15 min at 4° C., plasma was separated, and 2 blood samples were mixed in equal volumes; • 2. Weighed and dissolved a certain amount of Linifanib-C12-AA5/Linifanib-C12-Asp in DMSO:MeOH (2:8), prepared 200 μM mother liquor by purity, and added the compound to the plasma to a final concentration of 2 μg/mL. The organic ratio in the system was not more than 0.5%. • 3. Incubated in a 37° C. water bath and set the sampling points to 0, 0.5, 1, 2, 4, 6, and 8 h. At each sampling point, 100 μL of each sample was added to 300 μL of acetonitrile (with internal standard) for precipitation, centrifuged at 12,000 rpm for 5 min, and 200 μL of supernatant was taken for analysis by LC-MS/MS. • 4. Configured the standard curve to quantify Linifanib, Linifanib-C12-Asp and residual Linifanib-C12-AA5. • 2.2 Linifanib-C12-AA5 and Linifanib-C12-Asp liver/spleen homogenate incubation stability study protocol Test animal • Type: SD rat; Quantity: 2 • Sex: Male; Weight: 200-250 g
(§3) Experimental Procedure • 1. Biological analysis method: established the biological analysis method of the compound Linifanib-C12-Asp and Linifanib; • 2. Rat liver/spleen was taken on the day of the experiment, two pieces were cut and mixed, and homogenized with 4 volumes (1 g: 4 mL) phosphate buffer (pH 7.4), and the temperature was controlled to not exceed 10° C. in the homogenization process; quantitative detection of protein, and controlled liver and spleen protein concentration. • 3. Added the drug Linifanib-C12-AA5, Linifanib-C12-Asp to the liver/spleen homogenate to a concentration of 1000 ng/mL, the incubation volume was 1 mL, and controlled the concentration of the organic solvent in the incubation system to not exceed 0.5%. • 4. Incubated in a 37° C. water bath and took 100 μL of samples at 0, 0.5, 1, 2, 4, 6, and 8 h, respectively. After pre-processing the samples with a definite method, the LC-MS/MS analysis was carried out. • 5. Prepared a standard curve with blank liver/spleen homogenate to quantify Linifanib-C12-Asp and Linifanib. 3. Stability Study Results

[2] = Spleen homogenate incubation stability study; type: in vitro ADME, SD rat
Description: as §1, §2, §3

[3] = Plasma incubation stability study; type: in vitro ADME, SD rat; conditions: for Residual intermediate: rat plasma, 37° C., 2 μg/mL added, listed as intermediate
Description: as §1
• Instrument: AP13000 LC/MS, ABI • Materials: Male SD rats (200-250 g), Beijing Vital River • Test samples: positive drugs and their metabolites M1 and M2, Linifanib-C12-AA5 and its metabolites Linifanib-C12-ASP and Linifanib. 2. Stability study of Linifanib-C12-AA5 and Linifanib-C12-Asp • 2.1 Linifanib-C12-AA5 and Linifanib-C12-Asp plasma incubation stability study protocol Test animal • Type: SD rat; Quantity: 2 • Sex: male; weight: 200-250 g;
as §2

[4] = liver cancer patients, phase III; cited from earlier work
[5] = rat plasma incubation up to 8 h

- conversion into Linifanib in liver homogenate ([1]; liver homogenate): can be rapidly converted into Linifanib
- Residual intermediate ([1]; liver homogenate, first experiment, 1000 ng/mL added, 0 h): 1130 ng/mL and 1260 ng/mL
- Residual intermediate ([1]; liver homogenate, first experiment, 1000 ng/mL added, 0.5 h): 1000 ng/mL and 970 ng/mL
- Residual intermediate ([1]; liver homogenate, first experiment, 1000 ng/mL added, 1 h): 1130 ng/mL and 946 ng/mL
- Residual intermediate ([1]; liver homogenate, first experiment, 1000 ng/mL added, 2 h): 1000 ng/mL and 602 ng/mL
- Residual intermediate ([1]; liver homogenate, first experiment, 1000 ng/mL added, 4 h): 294 ng/mL and 456 ng/mL
- Residual intermediate ([1]; liver homogenate, first experiment, 1000 ng/mL added, 6 h): 452 ng/mL and 226 ng/mL
- Residual intermediate ([1]; liver homogenate, second experiment, 0 h): 649 ng/mL and 634 ng/mL
- Residual intermediate ([1]; liver homogenate, second experiment, 0.5 h): 452 ng/mL and 469 ng/mL
- Residual intermediate ([1]; liver homogenate, second experiment, 6 h): 309 ng/mL and 340 ng/mL
- Residual intermediate ([2]; first experiment, 1000 ng/mL added, 0 h, listed as intermediate): 900 ng/mL and 1020 ng/mL
- Residual intermediate ([2]; first experiment, 1000 ng/mL added, 0.5 h): 959 ng/mL
- Residual intermediate ([2]; first experiment, 1000 ng/mL added, 2 h, listed as intermediate): 755 ng/mL and 681 ng/mL
- Residual intermediate ([2]; first experiment, 1000 ng/mL added, 4 h, listed as intermediate): 610 ng/mL and 589 ng/mL
- Residual intermediate ([2]; first experiment, 1000 ng/mL added, 6 h, listed as intermediate): 470 ng/mL and 467 ng/mL
- Residual intermediate ([2]; first experiment, 1000 ng/mL added, 8 h, listed as intermediate): 499 ng/mL and 506 ng/mL
- Residual intermediate ([2]; second experiment, 0 h, listed as intermediate): 812 ng/mL and 844 ng/mL
- Residual intermediate ([2]; second experiment, 0.5 h, listed as intermediate): 770 ng/mL and 744 ng/mL
- Residual intermediate ([2]; second experiment, 6 h, listed as intermediate): 496 ng/mL and 483 ng/mL
- level of Linifanib produced in plasma [3, 5]: close to zero
- Residual intermediate ([3]; 0 h): 1900 ng/mL and 2180 ng/mL
- Residual intermediate ([3]; 0.5 h): 2100 ng/mL and 2290 ng/mL
- Residual intermediate ([3]; 1 h): 2180 ng/mL and 2290 ng/mL
- Residual intermediate ([3]; 2 h): 2160 ng/mL and 2110 ng/mL
- Residual intermediate ([3]; 4 h): 2210 ng/mL and 2270 ng/mL
- Residual intermediate ([3]; 6 h): 2070 ng/mL and 1880 ng/mL
- Residual intermediate ([3]; 8 h): 1940 ng/mL and 2060 ng/mL
SMILES: Cc1ccc(F)c(NC(=O)Nc2ccc(-c3cccc4c3c(N)nn4C(=O)CCCCCCCCCCCNC(=O)C[C@H](N)C(=O)O)cc2)c1 [Compound 12]
- stability in plasma ([3]; rat plasma incubation up to 8 h, listed as Linifanib-C12-Asp): stably incubated in plasma; also recorded: stable in plasma

SMILES: Cc1ccc(F)c(NC(=O)Nc2ccc(-c3cccc4[nH]nc(N)c34)cc2)c1 [Linifanib, reference compound]
- toxicity and side effects [4]: greater than Sorafenib

SMILES: Cc1ccc(F)c(NC(=O)Nc2ccc(-c3cccc4c3c(N)nn4C(=O)CCCCCCCCCCCNC(=O)C[C@H](N)C(=O)N[C@@H](CCC(=O)N[C@@H](CCC(=O)N[C@@H](CCC(=O)N[C@@H](CCC(=O)O)C(=O)O)C(=O)O)C(=O)O)C(=O)O)cc2)c1 [Compound 8]
- conversion of prodrug into active drug, liver versus spleen homogenate ([1]; FIG. 5, comparison of liver and spleen homogenate): more specifically converted into an active drug in the liver
- production of the intermediates Linifanib-C12-Asp and Linifanib in plasma [3, 5]: did not produce
- stability in plasma [3, 5]: stable in plasma
